Measured values as given in patent US20050020638A1, “Method of stabilizing lansoprazole” (priority 2003, published 2005).
Read-outs that look alike come from different tables or passages of the source.

Tests used:
[1] = Stability of stabilized vs. non-stabilized lansoprazole on storage (HPLC impurities and color); type: physicochemical; details: 40 °C, 75% humidity
Procedure: Chromatographic purity method of lansoprazole is detailed in the monograph in USP Forum Vol. 26 (5) [September-October 2000]. HPLC condition: Column C18 • Mobile phase: Gradient of triethylamine in water with acetonitrile • Flow: 0.8 ml/min • Detection: 285 nm Karl Fisher method for water determination is the USP method, 921. Ia, with the solvent: pyridine and ethylene glycol 9:1 as detailed in USP Forum Vol. 26 (5) [September-October 2000].

[2] = cited from earlier work
[3] = 1 month, lansoprazole of Example 2
[4] = 3 months, 'solvent free' lansoprazole of Example 3

| Compound | Color after storage [1, 3] | LNP-SO2 (sulfone derivative) after storage [1, 3] [%] | Total impurities after storage [1, 3] [%] | Color after storage [1, 4] | LNP-SO2 (sulfone derivative) after storage [1, 4] [%] | LNPS (sulfide derivative) after storage [1, 4] [%] | Total impurities after storage [1, 4] [%] | Color after storage ([2]; 4 months at 40 °C and 75% room humidity) | Color after storage ([2]; 4 months at 40 °C, absence of humidity) | LNPS (sulfide derivative) after storage [1, 3] [%] |
| --- | --- | --- | --- | --- | --- | --- | --- | --- | --- | --- |
| Cc1c(OCC(F)(F)F)ccnc1C[S+]([O-])c1nc2ccccc2[nH]1 (stereo not shown) [Lansoprazole stabilized with ammonia, 2-[[3-methyl-4-(2,2,2-trifluoroethoxy)-2-pyridyl]methyl]sulfinyl-1H benzimidazole] | white | 0.03 | 0.05 | white | 0.02 | 0.03 | 0.08 |  |  |  |
| Cc1c(OCC(F)(F)F)ccnc1C[S+]([O-])c1nc2ccccc2[nH]1 (stereo not shown) [lansoprazole, (2-[[[3-methyl-4-(2,2,2-trifluoro-ethoxy)-2-pyridinyl]methyl]sulfinyl]-1H-benzimidazole)] |  |  |  |  |  |  |  | pale brown | pale yellowish brown |  |
| Cc1c(OCC(F)(F)F)ccnc1C[S+]([O-])c1nc2ccccc2[nH]1 (stereo not shown) [Lansoprazole not stabilized with ammonia, 2-[[3-methyl-4-(2,2,2-trifluoroethoxy)-2-pyridyl]methyl]sulfinyl-1H benzimidazole] |  | 0.04 | 0.15 | Brownish | 0.04 | 0.06 | 0.31 |  |  | 0.03 |
